The values that follow come from patent publication US20110077263A1, “Methods and Compositions of Toll-Like Receptor (TLR) Agonists” (priority 2009, published 2011).

Structures are written as SMILES.

The subject of one series is TLR7 and/or TLR8. Conditions: cited from earlier work.
For series [1] the following is noted: cited from earlier work.
A further series deals with DC. In words: Imidazoquinoline activation assay on DC, surface markers by flow cytometry. Type of series: cell-based, human.
The test system of series [2] is high-risk HPV-induced vulvar intraepithelium neoplasia (VIN). The following applies: van Seters et al. 2008; cited from earlier work.
Series [3] relates to LC exposed to HPV16 VLP. Briefly: Transwell migration assay toward CCL21. It counts as cell-based, human. The following applies: then treated, 250 ng/ml CCL21, 3 h.
Method: LC, HPV16 VLP-exposed LC, or HPV16 VLP-exposed LC treated with each of the imidazoquinolines, using the same concentrations as stated in the imidazoquinoline activation assay, to the upper chambers. The plates were incubated for 3 h at 37° C. Cells that migrated to the lower chamber were counted, and migration was calculated as the ratio of cells that migrated with/without CCL21.
For series [4], the system named is LC. Conditions: previous studies; cited from earlier work.
The test system of series [5] is cervical intraepithelial neoplasia (CIN). Conditions: cited from earlier work.
In series [6] the test system is LC and LC exposed to HPV16 VLP. It counts as cell-based, human. Conditions: 5 μM 3M-002, 30 μM imiquimod, 30 μM resiquimod, 5 μM 3M-031, 24 h; for expression of surface markers (MHC class I, MHC class II, CD80, CD86) on LC exposed to HPV16 VLP: then treated; for expression of surface markers (MHC class I, MHC class II, CD80, CD86) on LC: LC not exposed to VLP. Here is the method: For DC, plastic adherent cells were selected by plating 2×10^8 cells in a 175-cm^2 tissue culture flask for 2 h at 37° C. Nonadherent cells were washed away and the remaining cells were cultured for 7 days in complete medium containing 1000 U/ml rGM-CSF (Berlex) and 1000 U/ml rIL-4 (BioSource International), of which 100% was replenished on day 3 and 50% was replenished on day 6. For LC, adherent cells were cultured for 7 days in complete medium containing 1000 U/ml rGM-CSF, 1000 U/ml rIL-4, and 10 ng/ml rTGF-β1 (BioSource International), of which 100% was replenished on day 3, 50% of rGM-CSF and rIL-4 was replenished on day 6, and 100% of rTGF-β1 was replenished on days 3 and 6.
(§1) DC and LC were harvested and washed twice with PBS. […] The cells were incubated for 1 h at 37° C., mixed occasionally, and finally placed at 37° C. for 24 h in complete medium containing 1000 U/ml rGM-CSF. LC were left untreated or exposed to HPV16 VLP at a concentration of 10 μg/10^6 cells. The cells were incubated for 1 h at 37° C., mixed occasionally, and placed at 37° C. for 24 h in complete medium containing 1000 U/ml rGM-CSF. […] DC and LC were harvested, washed, and analyzed by flow cytometry for the expression and surface markers. Additionally, untreated LC and LC exposed to HPV16 VLP were also analyzed for the expression of TLR7 and TLR8.
Each population of cells was harvested after the final incubation and analyzed by flow cytometry for the expression of surface markers.

Series [7] deals with LC exposed to HPV16 VLP. In words: CCR7 expression on LC by flow cytometry. Type of series: cell-based, human. The following applies: then treated. Background: In flow cytometry, cells or beads pass a laser one at a time.
For series [8], the system named is LC. The following applies: mouse model; Suzuki et al. 2000; cited from earlier work.
Series [9] concerns LC exposed to HPV16 L1L2 VLP. Type of series: cell-based, human. The following applies: co-stimulatory and activation molecules, Th1-promoting cytokines, HPV-specific T cells.
Method: LC were left untreated or exposed to HPV16 L1L2 VLP for 18 h at 37° C. […] Cell supernatants were analyzed for IL-12 p40/p70 using a Bio-plex suspension bead ELISA (BioRad, Hercules, Calif.).
Series [10] deals with LC exposed to HPV16 cVLP with autologous CD8+ T cells. It counts as cell-based, human. The following applies: then stimulated, versus untreated LC and LC exposed to cVLP.
Method: Briefly, LC were left untreated or exposed to 10 μg of HPV16 cVLP for 1 h at 37° C. in PBS. Subsequently, the cells were incubated for 4 h in complete medium supplemented with 1000 U/ml rGM-CSF at 37° C. Then cells were treated with or without each of the imidazoquinolines and incubated for 20 h at 37° C. […] LC were irradiated (25 Gy) and mixed with autologous CD8^+ T cells isolated from PBL by positive selection using a MACS MulitSort CD8^+ isolation kit (Miltenyi Biotec). Day 7 and 14 re-stimulations were done with LC treated as indicated above. For this, the medium was supplemented with IL-2 at 50 U/ml at 48 and 96 h after re-stimulation. After 28 days, cells were pooled and tested for IFN-γ production by ELISPOT as a measurement of HPV16-E7-specific CD8^+ T cell responses. Briefly, 96-well multiscreen hemagglutinin plates (Millipore) were coated with 10 μg/ml anti-human IFN-γ in PBS overnight, washed with PBS/0.5% Tween 20, and blocked for 4 h with complete medium at 37° C./5% CO2. Then, 2.5×10^5 cells/well were incubated in the presence or absence of HPV16-E7 peptide aa 86-93 for 18 h at 37° C. […] Individual spots were counted after staining with 3-amino-9-ethyl-carbazole substrate (Sigma-Aldrich). Spots were counted using the video-imaging KS ELISPOT analysis system (Zeiss).
Series [11] deals with LC and LC exposed to HPV16 VLP. Type of series: cell-based, human. The following applies: LC, and LC exposed to HPV16 VLP and then stimulated; for IP-10, MCP-1 and RANTES (CCL5) secretion: data not shown; for IL-12p70, TNF-α, IL-6, IL-8 and MIP-1β concentrations in supernatant: versus negative controls. Here is the method:
as §1
Supernatants were collected from LC stimulated in the imidazoquinolines activation assay and submitted to the Beckman Center for Immune Monitoring Core at the University of Southern California for cytokine and chemokine analysis. The assays were completed using Human Cytokine LINCOplex Kits (LINCO Research) and the Bio-Plex Suspension Array System (Bio-Rad).
Imidazoquinolines stimulate both an innate and an adaptive immune response. The innate immune response induced by imidazoquinolines drives the adaptive immune response into a Th1 cell-mediated response via the local cytokine and chemokine milieu generated primarily by activated macrophages and DC. Thus, Applicants wanted to determine whether selected imidazoquinolines could stimulate LC exposed to HPV16 VLP to produce a proinflammatory cytokine and chemokine profile similar to the cytokine milieu known to be generated by imidazoquinoline-activated DC. Cytokines and chemokines produced by untreated LC, LC exposed to HPV16 VLP, LC treated with each of the imidazoquinoline compounds, and LC exposed to HPV16 VLP and treated with the imidazoquinoline compounds were evaluated. Supernatant from each treatment was collected and analyzed using a human cytokine LINCOplex assay.

Series [12] deals with LC. Conditions: Burns et al. 2000; Suzuki et al. 2000; cited from earlier work.
Series [13] has as its system LC. The following applies: allogenic MLR; Burns et al. 2000; cited from earlier work.

`CCCc1nc2c(N)nc3ccccc3c2s1` [3M-002]: the “Agonist receptor(s)” value in the series with TLR7 and/or TLR8 is on record as “TLR8”.

For `CCOCc1nc2c(N)nc3ccccc3c2[nH]1` [CL097], the water solubility in series [1] was not below 20 mg/mL.

As to `CC(C)Cn1cnc2c(N)nc3ccccc3c21` [imiquimod], in the series on DC, the “expression of surface markers (MHC class I, MHC class II, CD80, CD86) on DC” value was “induced the up-regulation of surface markers”. For the same molecule, the “Agonist receptor(s)” value in the series with TLR7 and/or TLR8 was “TLR7”. Further, the “treatment of high-risk HPV-induced VIN” value in [2] is listed as “successful in treating”. Moreover, the “migration toward CCL21” value in the series with LC exposed to HPV16 VLP [3] is recorded as “did not enhance CCL21-directed migration”. Further, the “transcription of cytokine genes (TNF-α, IL-6, IL-12p40 mRNA)” value in the series on LC [4] is “enhanced the transcription of the genes”. The “regression of cervical intraepithelial neoplasia (CIN)” value in series [5] (clinical trials) is “has not led to regression”. Moreover, the “toxicity to the cervix” value in [5] (in vivo) is “toxic to the cervix”. In series [6], the “expression of surface markers (MHC class I, MHC class II, CD80, CD86) on LC exposed to HPV16 VLP” value is “moderately increased the expression of surface markers” and the “expression of surface markers (MHC class I, MHC class II, CD80, CD86) on LC” value was “only a minor up-regulation of surface markers”. For the same molecule, the “expression of CCR7” value in the series on LC exposed to HPV16 VLP [7] is “did not induce the expression of CCR7”. The “migration of LC” value in the series with LC [8] is “induces the migration of LC”. In addition, in series [9], the “activation of HPV-exposed LC” value is listed as “did not activate HPV-exposed LC”. In addition, in series [10], the “HPV16 E7 86-93 epitope-specific CD8+ T cell response (IFN-γ ELISPOT)” value is “did not induce a significant HPV16 epitope-specific immune response”. Besides, in series [11], the “IP-10, MCP-1 and RANTES (CCL5) secretion” value is reported as “comparable amounts”; the “IL-12p70, TNF-α, IL-6, IL-8 and MIP-1β concentrations in supernatant” value is recorded as “comparable amounts”.

In the case of `CCOCc1nc2c(N)nc3ccccc3c2n1CC(C)(C)O` [resiquimod], the “expression of surface markers (MHC class I, MHC class II, CD80, CD86) on DC” value in the series on DC is “induced the up-regulation of surface markers”. Further, in the series with LC [12], the “phenotypic and functional activation of LC” value was “do not phenotypically but functionally activate LC”. The “Agonist receptor(s)” value in the series with TLR7 and/or TLR8 is recorded as “TLR8/7”. The “migration toward CCL21” value in the series on LC exposed to HPV16 VLP [3] was “significantly induced the migration”. In the series with LC [4], the “transcription of cytokine genes (TNF-α, IL-6, IL-12p40 mRNA)” value was “enhanced the transcription of the genes”. The “allostimulatory capacity of treated LC (T cell proliferation)” value in the series on LC [13] was “highly increased the allostimulatory capacity of LC”. In series [6], the “expression of surface markers (MHC class I, MHC class II, CD80, CD86) on LC exposed to HPV16 VLP” value is reported as “significantly induced the up-regulation of the surface markers” and the “expression of surface markers (MHC class I, MHC class II, CD80, CD86) on LC” value is given as “significantly induced the up-regulation of surface marker”. For the same molecule, the “expression of CCR7” value with LC exposed to HPV16 VLP [7] was “induced the up-regulation of CCR7”. For the same molecule, the “activation of HPV-exposed LC” value in [9] is on record as “fully activated HPV treated LC”. In addition, the “HPV16 E7 86-93 epitope-specific CD8+ T cell response (IFN-γ ELISPOT)” value in [10] is listed as “initiated a statistically significant HPV16 epitope-specific response”. Besides, in series [11], the “IP-10, MCP-1 and RANTES (CCL5) secretion” value was “highly secreted”; the “IL-12p70, TNF-α, IL-6, IL-8 and MIP-1β concentrations in supernatant” value is given as “statistically significantly elevated”.
